Assay results: patent publication US20200157508A1, “SYSTEMS AND METHODS FOR GROWTH OF INTESTINAL CELLS” (CEDARS-SINAI MEDICAL CENTER, priority 2017, published 2020)

Assays:
[1] = test system: HIO-derived intestinal epithelial cells; experiment: Western blot of STAT1 phosphorylation in Intestine-Chip exposed to IFNγ; format: cell-based, human; details: 10-1000 ng/ml in lower channel for one hour
Protocol: (§1) FIG. 3. a) Western blot analysis showing phosphorylation of STAT1 in Chips containing either HIO-derived intestinal epithelial or Caco2 cells in response to exposure of increasing concentrations (0-1000 ng/ml) of IFNγ in the lower channel for 1 hour. Both GAPDH and STAT1 were used as loading controls. Image J analysis was used to quantify levels of phosphorylation of STAT1 compared to GAPDH b) Quantitative reverse transcription-polymerase chain reaction analyses of IDO1 and GBP1 and c) PLA2G2a, Muc4, lysozyme, Reg3γin Chips incorporating either HIO-derived epithelial or Caco2 cells in response to exposure of 10 ng/ml of IFNγ in the lower channel for 3 days. Three independent experiments were carried out; data represent mean and s.e.m; *P<0.05, **P<0.01 compared to respective untreated controls. […] Two independent experiments were carried out; data represent mean±SEM. **P<0.01. AUC, area under the curve; CTL, control; GAPDH, glyceraldehyde-3-phosphate dehydrogenase.
(§2) PBS was flushed through both the upper and lower channels and total protein was extracted in situ using cell lysis buffer (Cell Signaling cat #9803s) supplemented with protease and […] inhibitor (Sigma, # MSSAFE). Protein concentration was then determined and equal amounts of protein lysates were heat denatured and separated on a 10% mini-protean precast gel (Bio-Rad, #456-8034). […]

Caco2 cells [2] = experiment: Western blot of STAT1 phosphorylation in Caco2 Chip exposed to IFNγ; format: cell-based; details: 10-1000 ng/ml in lower channel for one hour
Protocol: as §1, §2

[3] = test system: HIO-derived epithelial cells; experiment: qRT-PCR gene expression in Intestine-Chip exposed to IFNγ; format: cell-based, human
Protocol: as §1
(§3) PBS was flushed through both the upper and lower channels and total RNA from the Intestine-Chip was extracted in situ with the RNeasy mini kit (Qiagen, USA). cDNA was generated from 1 μg of RNA using the Omniscript RT Kit (Qiagen). qRT-PCR was performed using SYBR® Select Master Mix (Applied Biosystems) on a BioRad CFX384 Real-Time System. Primer sequences as follows:
(§4) As Caco2 cells are routinely used to assess intestinal epithelial responses and have previously been incorporated into Chips, the Inventors also included these in the Inventors' studies to directly compare the Intestine-Chip. […] Thus both cell types were incubated with 10 ng/ml of IFNγ for 3 days and assessed for upregulation of indoleamine 2 3-dioxygenase (IDO1) and guanylate binding protein 1 (GBP1).

Caco2 cells [4] = experiment: qRT-PCR gene expression in Caco2 Chip exposed to IFNγ; format: cell-based; details: 10 ng/ml for 3 days
Protocol: as §1, §3, §4

[5] = 10 ng/ml in lower channel for 3 days
[6] = attenuated in comparison to HIO-epithelial cells

IFNγ: a cytokine known to be upregulated in IBD
phosphorylation of STAT1 [1]: robust phosphorylation of STAT1 | phosphorylation of STAT1 (Caco2 cells [2]): robust phosphorylation of STAT1 | Muc4 expression ([3]; 10 ng/ml for 3 days): significant upregulation | PLA2G2a expression ([3]; 10 ng/ml for 3 days): significant upregulation | Reg3γ expression ([3]; 10 ng/ml for 3 days): no differences | lysozyme expression ([3]; 10 ng/ml for 3 days): no differences | GBP1 expression vs controls [3, 5]: significant increase | IDO1 expression vs controls [3, 5]: significant increase | expression of PLA2G2a, Muc4, lysozyme, Reg3γ (Caco2 cells [4]): did not observe any significant upregulation | GBP1 expression vs controls (Caco2 cells [4]; [6]): significant upregulation | IDO1 expression vs controls (Caco2 cells [4]; [6]): significant upregulation
